# Patent US4698352A, “4-oxo-1,4-dihydronicotinic acid derivatives, salts thereof, and antibacterial agents containing the same” (Toyama Chemical Co., Ltd., priority 1982, dated 1987)
# Where two headings read alike, the source gives them in different places.
# Columns and labels:
# Test in all cases: Antibacterial activity (MIC), agar dilution
# Type in all cases: cell-based
# Kl. pneumoniae Y-4* = details: Klebsiella pneumoniae, 20 h, Kl. pneumoniae Y-4, penicillinase-producing; 10^6 cells per ml; read-out: MIC
# Excerpt: (§1) The amount of bacteria inoculated was 10^4 cells per plate (10^6 cells per ml).
# (§2) * Penicillinase-producing bacteria
# E. coli TK-3* = details: Escherichia coli, 20 h, E. coli TK-3, penicillinase-producing; 10^6 cells per ml; read-out: MIC
# Excerpt: as §1, §2
# Ps. aeruginosa GN3379* = details: Pseudomonas aeruginosa, 20 h; Ps. aeruginosa GN3379, penicillinase-producing; 10^6 cells per ml; read-out: MIC
# Excerpt: as §1, §2
# St. aureus F-137* = details: Staphylococcus aureus, 20 h
# Excerpt: as §1, §2
# Pro. vulgaris GN76** = details: Proteus vulgaris
# Excerpt: as §1
# (§3) ** Cephalospolinase-producing bacteria
# E. coli GN5482** = details: Escherichia coli, 20 h; E. coli GN5482, cephalospolinase-producing; 10^6 cells per ml; read-out: MIC
# Excerpt: as §1, §3
# Ps. aeruginosa GN918** = details: Pseudomonas aeruginosa, Ps. aeruginosa GN918, cephalospolinase-producing, 10^6 cells per ml
# Excerpt: as §1, §3
# Kl. pneumoniae Y-50 = details: Klebsiella pneumoniae, Y50, 20 h, 10^6 cells per ml, 37° C., read-out: MIC
# Excerpt: as §1
# Ps. aeruginosa IFO3445 = details: Pseudomonas aeruginosa; Ps. aeruginosa IFO3445; 10^6 cells per ml; 37° C., 20 hours; read-out: MIC
# Excerpt: as §1
# Pro. mirabilis T-111 = details: Proteus mirabilis, 37° C.
# Excerpt: as §1
# E. coli NIHJ JC-2 = details: Escherichia coli, NIHJJC2, 20 h
# Excerpt: as §1
# Aci. antitratus A-6 = details: 20 h, Aci. antitratus A-6; 10^6 cells per ml; 37° C., 20 hours; read-out: MIC
# Excerpt: as §1
# Ps. aeruginosa S-68 = details: Pseudomonas aeruginosa, S68; Ps. aeruginosa S-68; 10^6 cells per ml; 37° C., 20 hours; read-out: MIC
# Excerpt: as §1
# Pro. vulgaris GN3027 = details: Proteus vulgaris, GN3027, 20 h, Pro. vulgaris GN3027; 10^6 cells per ml; 37° C., 20 hours; read-out: MIC
# Excerpt: as §1
# Ent. cloacae IID977 = details: Enterobacter cloacae, IID977, 20 h, Ent. cloacae IID977; 10^6 cells per ml; 37° C., 20 hours; read-out: MIC
# Excerpt: as §1
# St. aureus FDA209P = details: Staphylococcus aureus, FDA209P, 20 h
# Excerpt: as §1
# Kl. pneumoniae Y-41 = details: Klebsiella pneumoniae, Y41, 10^6 cells per ml, 37° C., 20 hours, read-out: MIC
# Excerpt: as §1
# Pro. morganii T-216 = details: Morganella morganii, 37° C.
# Excerpt: as §1
# E. coli TK-111 = details: Escherichia coli, TK111, 20 h, E. coli TK-111; 10^6 cells per ml; 37° C., 20 hours; read-out: MIC
# Excerpt: as §1
# [1] = St. aureus F-137, penicillinase-producing, 10^6 cells per ml, read-out: MIC
# [2] = E. coli NIHJ JC-2, 10^6 cells per ml, 37° C., 20 hours, read-out: MIC
# [3] = St. aureus FDA209P, 10^6 cells per ml, 37° C., 20 hours, read-out: MIC
# [4] = T216, 10^6 cells per ml, 20 hours, read-out: MIC
# [5] = 20 h, Pro. vulgaris GN76, cephalospolinase-producing, 10^6 cells per ml, read-out: MIC
# [6] = T111, 10^6 cells per ml, 20 hours, read-out: MIC
SMILES,MIC (Kl. pneumoniae Y-4*),MIC (E. coli TK-3*),MIC (Ps. aeruginosa GN3379*),MIC (St. aureus F-137*; [1]),"MIC (Pro. vulgaris GN76**; GN76, 20 h)",MIC (E. coli GN5482**),"MIC (Ps. aeruginosa GN918**; 20 h, read-out: MIC)",MIC (Kl. pneumoniae Y-50),MIC (Ps. aeruginosa IFO3445),"MIC (Pro. mirabilis T-111; T111, 20 h, 10^6 cells per ml)",MIC (E. coli NIHJ JC-2; [2]),MIC (Aci. antitratus A-6),MIC (Ps. aeruginosa S-68),MIC (Pro. vulgaris GN3027),MIC (Ent. cloacae IID977),MIC (St. aureus FDA209P; [3]),MIC (Kl. pneumoniae Y-41),MIC (Pro. morganii T-216; [4]),MIC (E. coli TK-111),MIC (Pro. vulgaris GN76**; [5]),also measured
CN1CCOc2cc(-c3cc(=O)c(C(=O)O)cn3-c3ccc(O)cc3)ccc21,3.13 µg/mL,0.78 µg/mL,12.5 µg/mL,0.39 µg/mL,3.13 µg/mL,≤ 0.05 µg/mL,6.25 µg/mL,0.78 µg/mL,12.5 µg/mL,3.13 µg/mL,0.39 µg/mL,0.78 µg/mL,6.25 µg/mL,0.39 µg/mL,1.56 µg/mL,0.39 µg/mL,3.13 µg/mL,1.56 µg/mL,0.2 µg/mL,,
CN1CCOc2cc(-c3cc(=O)c(C(=O)O)cn3-c3ccc(O)cc3F)ccc21,3.13 µg/mL,0.78 µg/mL,12.5 µg/mL,0.2 µg/mL,3.13 µg/mL,≤ 0.05 µg/mL,,0.39 µg/mL,6.25 µg/mL,3.13 µg/mL,0.39 µg/mL,0.39 µg/mL,6.25 µg/mL,0.39 µg/mL,0.78 µg/mL,0.39 µg/mL,3.13 µg/mL,1.56 µg/mL,0.1 µg/mL,,"MIC (Ps. aeruginosa GN918**; GN918, 20 h): 3.13 µg/mL"
Cc1cc(O)ccc1-n1cc(C(=O)O)c(=O)cc1-c1ccc2c(c1)NCCN2C,6.25 µg/mL,0.78 µg/mL,25 µg/mL,0.78 µg/mL,,0.1 µg/mL,,0.39 µg/mL,25 µg/mL,3.13 µg/mL,0.39 µg/mL,1.56 µg/mL,12.5 µg/mL,0.78 µg/mL,1.56 µg/mL,0.78 µg/mL,3.13 µg/mL,,0.2 µg/mL,1.56 µg/mL,"MIC (Ps. aeruginosa GN918**; GN918, 20 h): 3.13 µg/mL; MIC (Pro. morganii T-216; T216, 20 h, 10^6 cells per ml): 3.13 µg/mL"
Cc1cc(O)ccc1-n1cc(C(=O)O)c(=O)cc1C1CC=CCC1 (stereo not drawn),1.56 µg/mL,0.78 µg/mL,6.25 µg/mL,0.1 µg/mL,,0.1 µg/mL,0.78 µg/mL,0.39 µg/mL,6.25 µg/mL,1.56 µg/mL,0.39 µg/mL,0.2 µg/mL,6.25 µg/mL,≤ 0.05 µg/mL,0.78 µg/mL,0.2 µg/mL,1.56 µg/mL,,0.1 µg/mL,0.39 µg/mL,"MIC (Pro. morganii T-216; T216, 20 h, 10^6 cells per ml): 1.56 µg/mL"
O=C(O)c1cn(-c2ccc(O)cc2F)c(C2CC=CCC2)cc1=O (stereo not drawn),6.25 µg/mL,3.13 µg/mL,12.5 µg/mL,0.39 µg/mL,,0.39 µg/mL,1.56 µg/mL,0.78 µg/mL,12.5 µg/mL,,1.56 µg/mL,3.13 µg/mL,12.5 µg/mL,0.1 µg/mL,3.13 µg/mL,0.39 µg/mL,6.25 µg/mL,3.13 µg/mL,0.39 µg/mL,0.78 µg/mL,MIC (Pro. mirabilis T-111; [6]): 12.5 µg/mL
Cc1cc(O)ccc1-n1cc(C(=O)O)c(=O)cc1C1CC2C=CC1C2 (stereo not drawn),25 µg/mL,12.5 µg/mL,> 100 µg/mL,,,1.56 µg/mL,50 µg/mL,3.13 µg/mL,> 100 µg/mL,,,6.25 µg/mL,> 100 µg/mL,0.78 µg/mL,12.5 µg/mL,,25 µg/mL,12.5 µg/mL,1.56 µg/mL,6.25 µg/mL,MIC (St. aureus F-137*): 3.13 µg/mL; MIC (Pro. mirabilis T-111; [6]): 25 µg/mL; MIC (E. coli NIHJ JC-2): 3.13 µg/mL; MIC (St. aureus FDA209P): 3.13 µg/mL
